Data taken from PMC12817919 (Journal of Virology, 2025).
Where two headings read alike, the source gives them in different places.

Assays:
RSV K394R = type: cell-based, respiratory syncytial virus (RSV); details: for Fold resistance (RSV K394R): fold change in the EC50 relative to that of wild-type RSV
RSV K399N = type: cell-based, respiratory syncytial virus (RSV); details: for Fold resistance (RSV K399N): fold change in the EC50 relative to that of wild-type RSV
RSV T400A = type: cell-based, respiratory syncytial virus (RSV); details: for Fold resistance (RSV T400A): fold change in the EC50 relative to that of wild-type RSV
wild-type RSV = experiment: microbe, parasite or virus in culture; type: cell-based
RSV F488L = type: cell-based, respiratory syncytial virus (RSV)
[1] = tested on: Lonafarnib escape virus populations P18 (RSV ON1); experiment: Antiviral activity against passaged virus in HEp-2 cells (FFA); type: cell-based, respiratory syncytial virus (RSV); details: human respiratory syncytial virus, HEp-2, MOI 0.2, FFA
RSV F protein [2] = target: T1, RSV F protein (Human respiratory syncytial virus A, UniProt P03420); type: cell-based; design: expressed in transfected cells; host or cells: HEK293T; details: HEK293T cells expressing RSV F, western blot
Target sequence in this assay (P03420 137-574): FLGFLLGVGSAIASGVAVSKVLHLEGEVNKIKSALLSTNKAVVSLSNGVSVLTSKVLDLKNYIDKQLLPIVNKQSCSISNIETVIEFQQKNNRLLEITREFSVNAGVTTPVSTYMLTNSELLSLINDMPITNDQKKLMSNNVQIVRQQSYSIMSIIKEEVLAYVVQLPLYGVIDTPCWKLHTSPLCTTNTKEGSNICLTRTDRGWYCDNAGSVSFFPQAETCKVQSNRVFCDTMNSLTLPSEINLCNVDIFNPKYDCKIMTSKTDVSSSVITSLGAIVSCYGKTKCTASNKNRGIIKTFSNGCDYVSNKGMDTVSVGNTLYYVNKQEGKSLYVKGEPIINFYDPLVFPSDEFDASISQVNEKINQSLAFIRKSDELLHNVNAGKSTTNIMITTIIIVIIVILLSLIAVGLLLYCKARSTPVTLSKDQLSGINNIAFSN
Target sequence in this assay (P03420 26-109): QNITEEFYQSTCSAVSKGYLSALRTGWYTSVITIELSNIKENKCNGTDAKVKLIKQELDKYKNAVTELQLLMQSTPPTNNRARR

RSV L141F = type: cell-based, respiratory syncytial virus (RSV)
RSV T400I = type: cell-based, respiratory syncytial virus (RSV)
RSV ON1 P18 (Control) = experiment: Antiviral activity against passaged virus in HEp-2 cells (FFA); type: cell-based, respiratory syncytial virus (RSV); details: human respiratory syncytial virus, HEp-2, MOI 0.2, FFA
RSV A2 P18 (Control) = experiment: as above; type: cell-based, respiratory syncytial virus (RSV); details: human respiratory syncytial virus, HEp-2, MOI 0.2, FFA
RSV A2 [3] = experiment: microbe, parasite or virus in culture; type: cell-based; details: human respiratory syncytial virus; HEp-2 (RSV A2, MOI = 0.2), 72 h, FFA
[4] = tested on: DS-Cav1 mutants (T335I, K394R, S398L, K399N, T400A, and D401E); type: binding; details: D401E compared with DS-Cav1
RSV F protein mutants = experiment: GFP-split cell-cell fusion assay mediated by transfected F or F mutants; type: cell-based, respiratory syncytial virus (RSV); details: 5, 1, 0.5 µM, 24 h, HEK293T GFP-split cells
Experimental: (§1) Cell–cell fusion assays were performed using a split-GFP system (GFP1-10 and GFP11) ([76]). Briefly, HEK293T cells stably expressing GFP1-10 were transfected with 1,000 ng of plasmids encoding either wild-type F or F mutants containing various amino acid substitutions. Alternatively, the cells were infected with RSV and treated with 0.1% DMSO or the indicated compounds at concentrations of 5, 1, and 0.5 µM. Then, the transfected or infected cells were co-cultured with HEK293T cells stably expressing GFP11 at a 1:1 ratio (8 × 10^4 cells/well) for 24 h in a 96-well plate. Images were acquired per well on an Operetta CLS High-Content Screening System (PerkinElmer).

in vitro = type: cell-based; details: human; HEp-2 cells, 72 h, CCK8
Experimental: HEp-2 cells (1.3 × 10^4) were seeded in 96-well plates for 20 h. The indicated compounds in a 3-fold dilution series were added to the cells, and three wells were performed in parallel. After 72 h, the cells were incubated with DMEM containing 10% FBS and CCK8 reagent (Beyotime Biotechnology, cat#C0038) for 30 min at 37°C. The absorbance at 450 nm and 600 nm was read using the PerkinElmer EnSight reader.

RSV = details: oral administration; cited from earlier work
RSV ON1 = experiment: microbe, parasite or virus in culture; type: cell-based; details: human respiratory syncytial virus; HEp-2 (RSV ON1, MOI = 0.2), 72 h, FFA
[5] = tested on: Lonafarnib escape virus populations P18 (RSV A2); experiment: Antiviral activity against passaged virus in HEp-2 cells (FFA); type: cell-based, respiratory syncytial virus (RSV); details: human respiratory syncytial virus, HEp-2, MOI 0.2, FFA
RSV V127G = type: cell-based, respiratory syncytial virus (RSV)
RSV ON1-GFP [6] = experiment: Antiviral drug assay using lung airway organoids; details: 96 h, MOI 1
Text: In brief, HBECs were initially cultured in PneumaCult-Ex Plus Medium ([sequence] Technologies, cat#05040), then seeded at 2 × 10⁵ cells/well into anti-adherence rinsing solution ([sequence] Technologies, cat#07010)-treated AggreWell400 24-well plates ([sequence] Technologies, cat#34415). They were maintained in PneumaCult Apical-Out Airway Organoid Medium ([sequence] Technologies, cat#100-0620) for 6 days. Subsequently, the cells were transferred to similarly treated flat-bottom 24-well plates and cultured in the same medium for an additional 9 days.
The airway organoids were infected with RSV ON1-GFP at an MOI of 1 for 4 h. […] At 96 h post-infection, cell-free medium was harvested, and a TCID50 assay was performed to determine the viral titer. The organoids were fixed in parallel in 4% PFA, permeabilized with 0.5% Triton X-100 (1 h), blocked with 5% BSA (Macklin, cat#B824162; 2 h), and incubated overnight at 4°C with primary antibodies: Goat anti-Human p63/TP73L polyclonal antibody (R&D Systems, cat#AF1916), Rabbit anti-Human Mucin 5AC polyclonal antibody (Abways, cat#CY6826), and Mouse anti-acetylated tubulin monoclonal antibody (Sigma-Aldrich, cat#T7451). […] The GFP fluorescence intensity was quantified using ImageJ analysis software (RRID: SCR_003070; National Institutes of Health, NIH).

RSV F protein [7] = target: T1, RSV F protein; type: cell-based; design: HEp-2 cells were infected with RSV (MOI = 10); endogenous in cells; host or cells: HEp-2 cells infected with RSV (viral protein made in the infected cell); details: HEp-2, RSV MOI 10, 1 µM, 18 h
Target sequence in this assay (P03420 137-574): as the sequence (P03420 137-574) above
Target sequence in this assay (Q96SW2 whole entry, further chain): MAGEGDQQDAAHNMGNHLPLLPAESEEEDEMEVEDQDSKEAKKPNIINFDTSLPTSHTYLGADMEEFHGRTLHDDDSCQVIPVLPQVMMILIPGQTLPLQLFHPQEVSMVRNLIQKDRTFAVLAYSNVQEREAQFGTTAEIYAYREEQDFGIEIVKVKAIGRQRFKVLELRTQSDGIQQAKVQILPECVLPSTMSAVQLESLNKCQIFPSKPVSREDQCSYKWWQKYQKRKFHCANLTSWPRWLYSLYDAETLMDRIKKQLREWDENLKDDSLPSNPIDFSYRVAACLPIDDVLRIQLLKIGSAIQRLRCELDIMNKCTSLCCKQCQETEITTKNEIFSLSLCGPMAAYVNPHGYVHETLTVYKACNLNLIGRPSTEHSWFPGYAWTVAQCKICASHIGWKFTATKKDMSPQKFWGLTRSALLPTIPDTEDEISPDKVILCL
Target sequence in this assay (P03420 26-109): as the sequence (P03420 26-109) above

RSV ON1-GFP [8] = experiment: Antiviral efficacy in primary human bronchial epithelial cells (GFP intensity); type: cell-based, respiratory syncytial virus (RSV); details: HBECs, MOI 2, 1 µM, 72 h
Experimental: The inhibitory effects of compounds on RSV ON1-GFP were evaluated in HBEC. […] At 72 h post-infection, the infected cells were visualized using an EVOS M5000 Cell Imaging System (Thermo Fisher Scientific).

RSV A2 [9] = experiment: GFP-split cell-cell fusion assay mediated by RSV infection; type: cell-based, respiratory syncytial virus (RSV); details: RSV A2 MOI 1; 5, 1, 0.5 µM, 24 h, HEK293T GFP-split cells
Experimental: as §1

[10] = Table 2 cross-resistance experiment, HEp-2, read-out: EC50 RSV K394R
[11] = Table 2 cross-resistance experiment, HEp-2, read-out: EC50 RSV K399N
[12] = Table 2 cross-resistance experiment, HEp-2, read-out: EC50 RSV T400A
[13] = human respiratory syncytial virus, wild-type RSV, Table 2 cross-resistance experiment, HEp-2, read-out: EC50 RSV

Cc1ccc2nc(N3CCS(=O)(=O)c4ccccc4C3)nc(NCC3(N)COC3)c2c1 [AK0529]
EC50 (RSV K394R; [10]): 6.55 µM | Fold resistance (RSV K394R) (RSV K394R): 4,983.3 | EC50 (RSV K399N; [11]): 2.25 µM | Fold resistance (RSV K399N) (RSV K399N): 1,713.3 | EC50 (RSV T400A; [12]): 9.85 µM | Fold resistance (RSV T400A) (RSV T400A): 7,491.3 | EC50 (wild-type RSV; [13]): 0.0013 µM

Cc1cn2nc([C@@H]3CCCCN3C(=O)c3cc(Cl)ccc3NS(C)(=O)=O)cc2nc1N1CC[C@H](N)C1 [GS-5806]
EC50 (RSV K394R; [10]): 0.193 µM | Fold resistance (RSV K394R) (RSV K394R): 1,673.9 | EC50 (RSV K399N; [11]): 0.0044 µM | Fold resistance (RSV K399N) (RSV K399N): 38.3 | EC50 (RSV T400A; [12]): 0.0288 µM | Fold resistance (RSV T400A) (RSV T400A): 250.1 | EC50 (wild-type RSV; [13]): 0.0001 µM

CS(=O)(=O)CCCn1c(Cn2c(=O)n(CC(F)(F)F)c3ccncc32)cc2cc(Cl)ccc21 [JNJ-53718678]
EC50 (RSV K394R; [10]): 10.1 µM | Fold resistance (RSV K394R) (RSV K394R): 15,582.2 | EC50 (RSV K399N; [11]): 0.248 µM | Fold resistance (RSV K399N) (RSV K399N): 382.2 | EC50 (RSV T400A; [12]): 11.7 µM | Fold resistance (RSV T400A) (RSV T400A): 17,920.3 | EC50 (wild-type RSV; wild-type RSV, Table 2 cross-resistance experiment, HEp-2, read-out: EC50 RSV): 0.0007 µM

NC(=O)N1CCC(CC(=O)N2CCC([C@H]3c4ncc(Br)cc4CCc4cc(Cl)cc(Br)c43)CC2)CC1 [Lonafarnib]
EC90 (RSV F488L; EC90 = 9^1/HillSlope*EC50): 1.9 ± 0.16 µM | EC50 (RSV F488L; HEp-2, MOI 0.2, 3 days, FFA): 0.7 ± 0.069 µM | EC90 (RSV K394R; K394R, EC90 = 9^1/HillSlope*EC50): 15 ± 7.33 µM | EC50 (RSV K394R; K394R, HEp-2, MOI 0.2, 3 days, FFA, read-out: EC50): 5.13 ± 1.69 µM | EC50 (RSV K394R; [10]): 3.84 µM | EC50 ([1]; HEp-2, Lineage 1): 3.36 µM | EC50 ([1]; HEp-2, Lineage 2): 4.1 µM | EC50 ([1]; HEp-2, Lineage 3): 3.5 µM | effect on F protein levels (RSV F protein [2]): did not affect F protein levels | EC90 (RSV K399N; K399N, EC90 = 9^1/HillSlope*EC50): 1.55 ± 0.277 µM | EC50 (RSV K399N; K399N, HEp-2, MOI 0.2, 3 days, FFA, read-out: EC50): 0.45 ± 0.032 µM | EC50 (RSV K399N; [11]): 0.406 µM | EC90 (RSV L141F; EC90 = 9^1/HillSlope*EC50): 0.631 ± 0.125 µM | EC50 (RSV L141F; HEp-2, MOI 0.2, 3 days, FFA): 0.079 ± 0.019 µM | EC90 (RSV T400I; EC90 = 9^1/HillSlope*EC50): 4.61 ± 0.663 µM | EC50 (RSV T400I; HEp-2, MOI 0.2, 3 days, FFA): 1.51 ± 0.184 µM | EC50 (RSV ON1 P18 (Control); HEp-2, Lineage 1): 0.09 µM | EC50 (RSV ON1 P18 (Control); HEp-2, Lineage 2): 0.13 µM | EC50 (RSV ON1 P18 (Control); HEp-2, Lineage 3): 0.13 µM | EC50 (RSV A2 P18 (Control); HEp-2, Lineage 1): 0.04 µM | EC50 (RSV A2 P18 (Control); HEp-2, Lineage 2): 0.05 µM | EC50 (RSV A2 P18 (Control); HEp-2, Lineage 3): 0.04 µM | EC50 (RSV A2 [3]): 0.04 ± 0.002 µM | binding affinity for lonafarnib (SPR) [4]: significantly decreased the binding affinity | inhibition of mutant-induced cell-cell fusion activity (RSV F protein mutants; T335I, S398L, K394R, K399I/N, T400A/I, and D401E mutants): did not or only slightly inhibit | inhibition of mutant-induced cell-cell fusion activity (RSV F protein mutants; V76A, K80N, L119I, and D392G/N mutants): significantly inhibited | CC50 (in vitro): 17.9 ± 1.13 µM | RSV load in murine infection model (RSV): dose-dependent reduction in the RSV load | EC90 (RSV T400A; T400A, EC90 = 9^1/HillSlope*EC50): 4.64 ± 0.44 µM | EC50 (RSV T400A; T400A, HEp-2, MOI 0.2, 3 days, FFA, read-out: EC50): 1.52 ± 0.127 µM | EC50 (RSV T400A; [12]): 1.12 µM | EC50 (RSV ON1): 0.06 ± 0.02 µM | EC50 ([5]; HEp-2, Lineage 1): 0.8 µM | EC50 ([5]; HEp-2, Lineage 2): 1.08 µM | EC50 ([5]; HEp-2, Lineage 3): 0.79 µM | EC90 (RSV V127G; EC90 = 9^1/HillSlope*EC50): 0.177 ± 0.038 µM | EC50 (RSV V127G; HEp-2, MOI 0.2, 3 days, FFA): 0.044 ± 0.005 µM | EC50 (wild-type RSV; human respiratory syncytial virus, 72 h, Wild-type, HEp-2, MOI 0.2, 3 days, FFA, read-out: EC50): 0.046 ± 0.01 µM | EC90 (wild-type RSV; human respiratory syncytial virus, HEp-2, Wild-type, EC90 = 9^1/HillSlope*EC50): 0.19 ± 0.12 µM | EC50 (wild-type RSV; [13]): 0.0456 µM

NCc1ccc2c(c1)nc(CN1C(=O)C3(CC3)c3ccc(F)cc31)n2CCCC(F)(F)F [RV521]
EC50 (RSV K394R; [10]): 0.179 µM | Fold resistance (RSV K394R) (RSV K394R): 2,462.8 | EC50 (RSV K399N; [11]): 0.0004 µM | Fold resistance (RSV K399N) (RSV K399N): 5.4 | EC50 (RSV T400A; [12]): 0.0126 µM | Fold resistance (RSV T400A) (RSV T400A): 173.6 | EC50 (wild-type RSV; [13]): 0.0001 µM

O=C1CCC(N2C(=O)c3cccc(NCCOCCOCCOCCC(=O)N4CCC(CC(=O)N5CCC([C@H]6c7ncc(Br)cc7CCc7cc(Cl)cc(Br)c76)CC5)CC4)c3C2=O)C(=O)N1 (stereo partly drawn) [compound 0179841, 4-((2-(2-(2-(3-(4-(2-(4-((R)−3,10-dibromo-8-chloro-6,11-dihydro-5H-benzo[5,6]cyclohepta[1,2-b]pyridin-11-yl)piperidin-1-yl)−2-oxoethyl)piperidin-1-yl)−3-oxopropoxy)ethoxy)ethoxy)ethyl)amino)−2-(2,6-dioxopiperidin-3-yl)isoindoline-1,3-dione]
reduction of viral titers compared with the DMSO control (RSV ON1-GFP [6]; 5 µM, TCID50 of supernatant): more than 100 fold | viral loads and protein expression in lung airway organoids (RSV ON1-GFP [6]; 5, 1, 0.5 µM): significantly reduced viral loads and protein expression in a dose-dependent manner | effect on F protein levels (RSV F protein [2]): time- and concentration-dependent | degradation of the F protein during RSV infection (RSV F protein [7]): induced significant degradation of the F protein | EC50 (RSV A2 [3]): 0.45 ± 0.04 µM | RSV infection level (GFP intensity) (RSV ON1-GFP [8]): significant decrease in the RSV infection level | CC50 (in vitro): > 100 µM | inhibition of RSV-induced cell-cell fusion activity (RSV A2 [9]): significantly inhibited | EC50 (RSV ON1): 0.46 ± 0.03 µM
